Assays:
human recombinant COX-2 = target: T1, human recombinant COX-2 (Homo sapiens, UniProt P35354); assay: In vitro COX-2 inhibition, enzyme immunoassay; assay type: biochemical; details: for COX-2 S. I. (in vitro COX-2 selectivity index, COX-1/COX-2): ratio COX-1 IC50/COX-2 IC50
T1 sequence (P35354 18-604): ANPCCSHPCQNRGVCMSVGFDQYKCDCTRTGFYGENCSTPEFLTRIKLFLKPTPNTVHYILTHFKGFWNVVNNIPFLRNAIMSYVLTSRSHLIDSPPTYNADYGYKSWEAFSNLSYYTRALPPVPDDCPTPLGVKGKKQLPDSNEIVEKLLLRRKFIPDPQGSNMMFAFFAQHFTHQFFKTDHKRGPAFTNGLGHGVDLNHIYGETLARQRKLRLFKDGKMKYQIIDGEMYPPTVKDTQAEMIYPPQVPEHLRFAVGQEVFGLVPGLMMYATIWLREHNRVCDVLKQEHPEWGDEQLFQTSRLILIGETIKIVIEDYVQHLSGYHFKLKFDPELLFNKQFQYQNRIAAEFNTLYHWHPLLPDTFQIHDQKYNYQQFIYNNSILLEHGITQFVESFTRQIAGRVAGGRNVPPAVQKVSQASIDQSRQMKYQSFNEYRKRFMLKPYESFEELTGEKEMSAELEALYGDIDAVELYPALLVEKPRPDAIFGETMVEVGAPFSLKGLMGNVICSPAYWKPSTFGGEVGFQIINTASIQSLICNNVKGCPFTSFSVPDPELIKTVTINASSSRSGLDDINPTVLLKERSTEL

ovine COX-1 = target: T2, ovine COX-1 (Ovis aries, UniProt P05979); assay: In vitro COX-1 inhibition, enzyme immunoassay; assay type: biochemical
T2 sequence (P05979 25-600): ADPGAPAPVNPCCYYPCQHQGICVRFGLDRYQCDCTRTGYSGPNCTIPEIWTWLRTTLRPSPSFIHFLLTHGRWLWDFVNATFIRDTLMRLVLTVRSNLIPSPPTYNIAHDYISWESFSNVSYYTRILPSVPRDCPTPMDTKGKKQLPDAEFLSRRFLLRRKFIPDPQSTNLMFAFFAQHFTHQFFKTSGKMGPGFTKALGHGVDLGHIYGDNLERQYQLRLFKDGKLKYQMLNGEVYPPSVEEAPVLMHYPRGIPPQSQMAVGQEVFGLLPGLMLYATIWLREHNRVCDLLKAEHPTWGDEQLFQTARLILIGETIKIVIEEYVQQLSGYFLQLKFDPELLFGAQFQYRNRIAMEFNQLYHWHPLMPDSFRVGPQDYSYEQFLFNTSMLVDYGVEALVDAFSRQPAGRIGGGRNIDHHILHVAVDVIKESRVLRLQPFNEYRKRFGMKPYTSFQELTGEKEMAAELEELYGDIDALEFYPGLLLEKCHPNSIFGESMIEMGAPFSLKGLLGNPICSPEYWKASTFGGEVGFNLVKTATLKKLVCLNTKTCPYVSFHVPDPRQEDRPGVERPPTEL

SMILES	IC50 (human recombinant COX-2) [µM]	COX-2 S. I. (in vitro COX-2 selectivity index, COX-1/COX-2) (human recombinant COX-2)	IC50 (ovine COX-1) [µM]
CCCCCCCCCCCc1c2oc3cccnc3nc-2cc(O)c1=O [Compound 7, 8-hydroxy-6-undecyl-7H-benzo[b]pyrido[2,3-e][1,4]oxazin-7-one]	1.56	2.04	3.19
CCCCCCCCCCCC1=C(OC(C)=O)C(=O)C=C(OC(C)=O)C1=O [Compound 8, 3,6-Dioxo-2-undecylcyclohexa-1,4-diene-1,4-diyl diacetate]	1.23	1.83	2.25
CCCCCCCCCCCC1=C(O)C(=O)C=C(O)C1=O [Compound 1, 2,5-dihydroxy-3-undecyl-1,4-benzoquinone]	2.98	2.15	6.42
CCCCCCCCCCCC1=C(O)C(=O)C=C(NCCN(C)C)C1=O [Compound 3, 5-(2-(Dimethylamino)ethylamino)-2-hydroxy-3-undecylcyclohexa-2,5-diene-1,4-dione]	1.65	2.17	3.58
CCCCCCCCCCCC1=C(O)C(=N/C)/C=C(O)C/1=N/C [Compound 5, (3E, 6E)-3,6-bis(Methylimino)-2-undecylcyclohexa-1,4-diene-1,4-diol]	2.56	2.98	7.65
CCCCCCCCCCCC1=C(O)C(=O)C=C(NC)C1=O [Compound 2, 2-Hydroxy-5-(methylamino)-3-undecylcyclohexa-2,5-diene-1,4-dione]	3.1	2.11	6.54
CCCCCCCCCCCC1=C(O)C(=N/CC)/C=C(O)C/1=N/CC [Compound 6, (3E, 6E)-3,6-bis(Ethylimino)-2-undecylcyclohexa-1,4-diene-1,4-diol]	2.15	3.18	6.85
